Values joined by “and” are separate entries in the source; they are usually repeats but may differ in a detail not shown here. Identical values can stand only once. “Also recorded” adds a separate entry of the source.
Tests used:
[1] = Blood clearance in a cynomolgus monkey (PET and gamma counter); format: in vivo
Experimental: Blood kinetics of the compound described in example 40 in cynomolgus monkey. PET-imaging was performed continuously from shortly before up to 60 minutes post injection. Venous blood samples were taken at 3, 10, 30 and 60 minutes p.i. and were measured in a gamma-counter (Automatic Gamma Counter Wizard^2 3, Perkin Elmer) and expressed as cpm/mg blood. Additionally, the blood-concentration of the compound was measured from the PET-Image over the whole imaging period and expressed as % ID/g.
The blood clearance of the compound described in example 40 has been determined in a cynomolgus monkey. A female cynomolgus monkey was anesthetized with a mixture of Xylazin (Rompun®, Bayer HealthCare, Leverkusen, Germany), 0.12 mL/kg bodyweight and Ketamine (Ketavet®, Pfizer) 0.12 mL/kg bodyweight i.m. The monkey was placed inside the PET-scanner (Inveon PET/CT, Siemens Medical, Erlangen) and 25 MBq of the compound has been injected i.v. while PET-imaging was performed continuously from shortly before up to 60 minutes post injection. Venous blood samples were taken at 3, 10, 30 and 60 minutes p.i. and were measured in a gamma-counter (Automatic Gamma Counter Wizard^2 3, Perkin Elmer). Additionally, the blood-concentration of the compound was measured from the PET-Image over the whole imaging period (FIG. 4).

human thrombi = assay: Ex vivo blood flow model: binding to human thrombi, incl. competition with cold compound; settings: ± SEM
Excerpt: The binding of compounds to thrombi was further investigated in an ex vivo blood flow model similar to that described in “Wakhloo, A. K. et al. Thrombus and stroke 2008, in vitro models 57-66” but modified with regard to thrombus development. Briefly, an open handmade tube-set consisting of tygon-tubes (Tygon R-1000, part N^O AAU00007: I.D. 3.2 mm, O.D. 6.4 mm, Saint Gobain Performance Plastics North America), intermediate tubes (Intrafix® Infusion set, B. Braun, Melsungen, Germany) an open reservoir (10 mL Combitip, Eppendorf) and a chamber made of a piece of polyethylene-Tube, ([…] Polyethylene Tubing, Clay Adams, PE160, length: 6.5 cm) containing a loop of a roughened thread (fishing line: Okuma UltraMax whitefish, diameter: 0.14 mm, length: 5 cm; sandpaper: CAMI Grit designation: 600, CP918a, VSM) was used for thrombus formation. The connection between the intermediate tube and the thrombus chamber was made by trimmed tips (epTIPS, 200 μL, Eppendorff, Hamburg/Germany). The Reservoir and the thrombus chamber were fixed by clamps and stands. A peristaltic-pump (Minipuls 3, Gilson, Middelton/USA) was used to pump the blood around thereby adjusting the flow in the middle of the thrombus chamber to 70-90 cm per second, which was monitored by ultrasound Doppler measurement (Vevo 770 High-Resolution In Vivo Micro-Imaging System, VisualSonics, TorontoOntario, Canada; Scanhead: RMV 704, 40 MHz). The volume of the entire tube-set was 7.5 or 15 mL.
For each experiment fresh blood was taken from a volunteer using 10 mL citrate-tubes (Sarstedt S-Monovette 02.1067.001, 10 mL, Citrate 3.13%) and immediately laid into the turning-device of an incubator at a temperature of 37° C. (Heraeus miniTherm CTT with integrated rotation- and turning device, turning speed: 19 rotations per minute, Heraeus Instruments GmbH, Hanau/Germany). As needed, two tubes were taken out of the turning-device and 15 mL were transferred to a 20 mL Syringe (Omnifix®, B. Braun, Melsungen/Germany) and gently mixed with 0.75 mL CaCl2-Solution before the peristaltic pump was started and the whole content of the syringe was transferred into the reservoir of the tube-set via a cell strainer (BD Falcon™ cell strain, 40 μm, BD, Franklin Lakes, N.J. USA). After 7 minutes 1 MBq or 0.5 MBq (15 mL or 7.5 mL) of the compound was added to the reservoir by means of a pipette, thereby mixing the content gently with the tip of the pipette. The blood was left circulating for another 3 minutes. Then, the pump was stopped, aliquots were taken from the blood and the thrombus together with the roughened thread was removed from the thrombus-chamber before both was weighted and measured in a gamma counter (Automatic Gamma Counter Wizard^2 3, Perkin Elmer). Then the thrombus together with the thread was incubated in Plasmin-solution (Plasmin from Human Plasma, Sigma Aldrich, stock-solution: 500 μg in 500 μL 150 μM Tris-buffer (pH 7.8), 20 μL stock-solution to 230 μL saline solution 0.9%) for 48 hours to separate the platelets from the thread and to determine the netto weight of the thrombus. Finally the activity of the compound in blood and thrombus as well as the ratio between both was determined (cpm/weight [mg]).
To verify the specificity of the compound, a competition experiment was conducted in which the cold compound was added to the reservoir together with the hot compound. The final plasma concentration of the cold compound was 2.8 μM.

[2] = tested on: arterial and venous thrombi; assay: Thrombus PET imaging and in vivo clot-to-blood ratio in cynomolgus monkeys; set-up: species or system cynomolgus monkey
Experimental: The ability of the compound described in example 40 for the imaging of thrombi was investigated in a PET-study with cynomolgus monkeys (female, 2.8-3.2 kg).
The first monkey was anesthetized with a mixture of Xylazin (Rompun®, Bayer HealthCare, Leverkusen, Germany), 0.12 mL/Kg and Ketamine (Ketavet®, Pfizer) 0.12 mL/Kg b.w. i.m. and additionally analgesized by an i.m. injection of 6 μg Buprenorphine per kg. While the investigation, small amounts of Ketamine have been injected i.m. if required. The left common carotid artery was exposed surgically and a polyethylene-tube ([…] Polyethylene Tubing, Clay Adams, PE50), which was roughened previously by sandpaper (600—CAMI Grit designation), was inserted into the vessel, advanced into the descending aorta and was left there for 30 minutes to allow for the development of a thrombus on the rough surface of the tube. Meanwhile, the monkey was placed inside the PET-scanner (Inveon PET/CT, Siemens Medical, Erlangen). […] The thickness of this layer was far below 1 mm (see also removed thrombus of Monkey 2, FIG. 7) and therewith also far below the resolution of the image, which is approximately 1 mm. This also means, that even slightest thrombi, even if their size is far less than the resolution of the imaging-device, can be visualized due to the massive accumulation of compound on the platelets of the thrombi. At the end of the experiment the tube was removed carefully from the vessel before it was weighted and measured in a gamma counter (Automatic Gamma Counter Wizard^2 3, Perkin Elmer). Then the thrombus together with the tube was incubated in Plasmin-solution (Plasmin from Human Plasma, Sigma Aldrich, Plasmin-stock-solution: 500 μg Plasmin in 500 μL Tris-buffer (150 μM, pH 7.8), 20 μL Plasmin-stock-solution to 230 μL saline solution 0.9%) for 48 hours to separate the platelets from the tube and to determine the netto weight of the thrombus. Finally the activity of the compound in blood and thrombus as well as the ratio between the two was determined (cpm/weight [mg]).
The experiment was repeated with the same compound in another monkey with a slightly different preparation of the thrombogenic tube: This tube was roughened at only two short sections with a gap in between. Apart from that, the experimental design including the determination of the in vivo clot-to-blood ratio was as described above for monkey 1.
The experiment was repeated with the same compound in another monkey, but with the reduced dose of 15 MBq for the whole animal. In addition to the arterial catheter, this animal also received a venous catheter, also made of PE50-catheter-tube and roughened at some parts with gaps in between as described above. […]
The in vivo clot-to-blood ratio was determined from 5 thrombi out of the above described monkey experiments. As already mentioned above the thrombi had been removed from the vessels after imaging and had been weighted and measured in a gamma-counter (Automatic Gamma Counter Wizard^2 3, Perkin Elmer) together with blood samples taken from the animal. After incubation of the thrombi in Plasmin (Plasmin from Human Plasma, Sigma Aldrich, Plasmin-stock-solution: 500 μg Plasmin in 500 μL Tris-buffer (150 μM, pH 7.8), 20 μL Plasmin-stock-solution to 230 μL saline solution 0.9%) and removal of the thrombi from the catheter tubes, the netto weight of the thrombi was calculated and the concentration of the compound in thrombus (clot) and blood, as well as the ratio between the two was calculated.

With `O=C(O)C[C@H](NC(=O)[C@@H]1CCCN(C(=O)CCC2CCNCC2)C1)c1cncc(OCC[18F])c1` [Example 40, (3S)-3-[5-(2-[^18F]Fluoroethoxy)pyridin-3-yl]-3-[({(3R)-1-[3-(piperidin-4-yl)propanoyl]piperidin-3-yl}carbonyl)amino]propanoic acid] the blood clearance ([1]; 25 MBq i.v., up to 60 minutes p.i.) was “rapidly cleared from the blood; also recorded: rapidly eliminated from the blood”, the “contrast in the brain” value ([1]; PET) was “completely free of contrast” and the “signal in other tissue” value ([1]; PET) was “only marginal signal visible in any other tissue”. The “in vitro clot-to-blood ratio” value (human thrombi; 3 minutes post-injection of 18F-labeled compound) was 71 ± 4 (n = 3), the “Accumulation Thrombus” value (human thrombi; 3 minutes post-injection of 18F-labeled compound, without cold compound) was 202 ± 11 (n = 3) 10^3 cpm/mg and the Thrombus competition (human thrombi; cold compound added with hot compound, final plasma concentration 2.8 μM, 3 minutes) was 8 ± 1 (n = 3) 10^3 cpm/mg. The “retention within the thrombus” value ([2]; 60 minutes were shown) was “almost completely remains within the thrombus”, the Blood ([2]; blood sample of the animal, Cynomolgus monkey) was 90 cpm/mg and 130 cpm/mg and 100 cpm/mg and the “Clot/Blood mean (in vivo clot-to-blood ratio)” value ([2]; mean of 5 thrombi, sd 52) was 126+/−52 and 126. For the same compound, the “background in surrounding tissue or organ” value ([2]; monkeys, PET) was “almost no background in any surrounding tissue or organ” and the “accumulation in venous and arterial thrombi” value ([2]; monkeys, PET, 15-25 MBq i.v.) was “surprisingly high accumulation”.
